Measured values from patent US20120225947A1, “RETINAL NEUROPROTECTION BY ION CHANNEL BLOCKERS REGULATED BY THE SUR SUBUNIT” (ASSISTANCE PUBLIQUE - HOPITAUX DE PARIS, priority 2009, published 2012).
Read-outs that look alike come from different tables or passages of the source.

Key:
[1] = system: retinal cells; assay type: in vivo; conditions: vs BSS, P<0.0001, FIG. 10
Excerpt: (§1) To induce retinal neurodegeneration, the inventors injected N-methyl-D-aspartate (NMDA) into the vitreous body of rats, a recognized model of retinal excitotoxicity in which NMDA, a synthetic glutamate analog, promotes cell death (Crisanti et al., 2006). Present in excess amounts, NMDA hyperactivates neuronal excitatory receptors (NMDA receptors) which become permeable to calcium. Injection of NMDA results in an increase in intracellular calcium levels. Intracellular calcium activates enzymes (phospholipase C, endonucleases, proteases) which degrade cell structures and lead to apoptosis.
Eight-week-old male Wistar rats weighing 320-350 g were used. Rats were maintained in standard animal housing with a 12 hr day/12 hr night cycle at a temperature of 21° C.+1° C. and 55±5% humidity. […]
The amount of cell death by apoptosis and the type of cells concerned were evaluated by the number and intraretinal location of TUNEL-positive nuclei. […] The total number of apoptotic cells per retina was calculated with reference to the number of fields counted (therefore to retinal length which varies from one area of the retina to another). The mean of these field counts was calculated for an entire retinal section (composed of 7 to 14 fields) and these means, calculated for the different treatment groups, were compared by a nonparametric Mann-Whitney test with significance at p<0.05. […]

[2] = system: retinal cells; assay: NMDA-induced retinal degeneration in the rat, different routes of administration of glibenclamide (Example 2), TUNEL apoptotic cell count; assay type: in vivo; conditions: for apoptotic cell count in retinas exposed to NMDA-induced degeneration: 18 hours, vs NMDA+DMSO, FIG. 6; for NMDA-induced retinal cell degeneration (apoptotic cells per field): intravitreal NMDA the same day
Excerpt: as §1
Eight-week-old male Wistar rats weighing 320-350 g were used. Rats were maintained in standard animal housing with a 12 hr day/12 hr night cycle at a temperature of 21° C.+1° C. and 55±5% humidity.
Retinal sections were permeabilized by incubation in 0.3% Triton ×100 for 20 minutes at room temperature and then incubated for 1 hour at 37° C. with 50 μL of TUNEL reaction mixture per slide (mixture obtained with 40 μL TUNEL enzyme and 360 μL TUNEL label, solution containing FITC-conjugated nucleotides).
The amount of cell death by apoptosis and the type of cells concerned were evaluated by the number and intraretinal location of TUNEL-positive nuclei. For each eye, four complete retinal sections taken from the same eye sectors were used for apoptotic cell counts. The total number of apoptotic cells per retina was calculated with reference to the number of fields counted (therefore to retinal length which varies from one area of the retina to another). The mean of these field counts was calculated for an entire retinal section (composed of 7 to 14 fields) and these means, calculated for the different treatment groups, were compared by a nonparametric Mann-Whitney test with significance at p<0.05.
Eight groups of 2 rats were used. Both eyes of each animal received identical treatment. Three routes of administration of glibenclamide were tested: intravitreal route (1 ng or 0.01 ng injected in each eye), oral route (10 mg/kg body weight) and subconjunctival route (1 ng glibenclamide injected in each eye).
The glibenclamide stock solution for the intravitreal and subconjunctival injections was obtained by diluting 4.5 mg glibenclamide in 300 μL of pure DMSO. This solution was then frozen. The glibenclamide solutions at different concentrations used for the intravitreal and subconjunctival injections were obtained by dilution in BSS® buffer (Alcon) immediately before use.
The glibenclamide solutions for oral administration (10 mg/kg) were obtained by dissolving 8 mg glibenclamide in […] DMSO and 1030 μL of water to give a 6 mg/ml glibenclamide solution, which was administered through a syringe.
Group 1: (n=2, 4 eyes), intravitreal injection of 6 μL of solution containing 45 nM NMDA and 1 ng glibenclamide.
Group 2: (n=2, 4 eyes), intravitreal injection of 6 μL of solution containing 45 nM NMDA and 0.01 ng glibenclamide.
Group 4: (n=2, 4 eyes), oral administration of glibenclamide 10 mg/kg body weight and simultaneous intravitreal injection of 6 μL of 45 nM NMDA. A 7% glucose solution was made available ad libitum to avoid possible hypoglycemia.
Group 6: (n=2, 4 eyes), subconjunctival injection of 50 μL of solution containing 1 ng glibenclamide and simultaneous intravitreal injection of 6 μL of 45 nM NMDA.
18 hours after NMDA and glibenclamide administration, rats were euthanized and the eyes were immediately dissected, fixed in 4% paraformaldehyde and 10% sucrose for 4 hours, then immersed overnight at 4° C. in 15% sucrose in phosphate buffer.
Eyes were then embedded in OCT and cryostat-sectioned (10 μm thick). Sections were labeled by the TUNEL method to detect apoptotic cell death.

Structure (SMILES): COc1ccc(Cl)cc1C(=O)NCCc1ccc(S(=O)(=O)NC(=O)NC2CCCCC2)cc1 [glibenclamide]
- protection of retinal cells from NMDA-induced degeneration (apoptotic cells per field) ([1]; intravitreal 100 ng in BSS 5 days before intravitreal NMDA): significantly protected
- protection of retinal cells from NMDA-induced degeneration (apoptotic cells per field) ([1]; intravitreal 100 μg in BSS 5 days before intravitreal NMDA): significantly protected
- apoptotic cell count in retinas exposed to NMDA-induced degeneration ([2]; intravitreal 0.01 ng co-injected with 45 nM NMDA): significant decrease
- organization of the retinal cell layers (DAPI labeling) ([2]; intravitreal 0.01 ng co-injected with NMDA, FIG. 7C): perfectly conserved
- apoptotic cell count in retinas exposed to NMDA-induced degeneration ([2]; intravitreal 1 ng co-injected with 45 nM NMDA): significant decrease
- organization of the retinal cell layers (DAPI labeling) ([2]; intravitreal 1 ng co-injected with NMDA, FIG. 7B): perfectly conserved
- NMDA-induced retinal cell degeneration (apoptotic cells per field) ([2]; oral 10 mg/kg, vs DMSO per os, P=0.012, FIG. 8): significantly reduced
- NMDA-induced retinal cell degeneration (apoptotic cells per field) ([2]; subconjunctival 1 ng, vs DMSO SCJ, P=0.0002, FIG. 9): significantly reduced
